{"source": "paper PMC11653702", "about": "“Targeting the SPC25/RIOK1/MYH9 Axis to Overcome Tumor Stemness and Platinum Resistance in Epithelial Ovarian Cancer” (Advanced Science, 2024)", "key": {"SKOV3 cells [1]": {"test_system": "SKOV3 cells", "assay": "Cell Counting Kit-8 viability, SKOV3", "type": "cell-based, human", "conditions": "SPC25-silenced SKOV3", "experimental": "(§1) Cell Viability Assay: The indicated cells were seeded into 96-well plates at a density of 4 × 10^3 cells per well. Next, the Cell Counting Kit-8 reagent (Dojindo) was added to the wells, followed by incubation at 37°C for 2 h in the dark, after which the optical density at 450 nm was determined on a microplate reader (EPOCH2; BioTek, USA). Each cell line was represented using triplicate wells, and the experiment was repeated three times."}, "OVCAR3 cells [2]": {"test_system": "OVCAR3 cells", "assay": "Annexin V/PI apoptosis, OVCAR3", "type": "cell-based, human", "conditions": "for PI+/AnnexinV+: replicates #1-#3", "experimental": "(§2) Fluorescence-Activated Cell Sorting Assay: For apoptosis analysis, we used an Annexin V-FITC/PI Apoptosis Detection Kit (#A211-01; Vazyme Biotech), according to the manufacturer’s instructions. We considered the total proportion of Annexin V-positive cells (quadrants II and III) to be the apoptotic rate, regardless of the PI status. All samples were analyzed on a flow cytometer (cytoFLEX LX; Beckman Coulter, Indianapolis, IN, USA), and percentages of apoptotic cells were analyzed using CytExpert (Beckman Coulter)."}, "caspase-3 and PARP": {"test_system": "caspase-3 and PARP", "assay": "Western blotting of apoptosis-related proteins in xenografted tumor tissues", "type": "in vivo, human EOC cells in BALB/c-Nude mice", "conditions": "SPC25-overexpressing OVCAR3 tumors, CDDP", "experimental": "(§3) In the intraperitoneal tumor model, 1 × 10^6 of the indicated cells stably expressing luciferase were injected intraperitoneally into the mice. Treatment with saline (Vehicle), CDDP (5 mg/kg, 3 times per week for 1 week), CBP1 (10 mg/kg, once in 2 days), or a combination of CDDP (5 mg/kg, 3 times per week for 1 week) and CBP1 (10 mg/kg, once in 2 days) was initiated when the bioluminescence signal reached 2 × 10^7 p/s/cm^2/sr for 6 weeks of continuous treatment cycles. The mice were sacrificed when they became moribund, as determined by an observer blinded to the treatment. Finally, their tumors were excised for qRT‐PCR and Western blotting.\nWestern Blotting: Western blotting was performed using primary antibodies detailed in Table S5 (Supporting Information). Western blotting grayscale analyses were performed using ImageJ (version 2.0.0; NIH, Bethesda, MD, USA). β-Catenin expression was quantified by determining the gray level of each band using Image J and normalized using α-tubulin."}, "[3]": {"test_system": "OVCAR8 xenografted tumor tissues", "assay": "TUNEL assay in intraperitoneal xenografted tumor tissues, OVCAR8", "type": "in vivo, human EOC cells in BALB/c-Nude mice", "conditions": "for TUNEL+ cell (%): #1-#6; for TUNEL assay: animal model OVCAR8", "experimental": "as §3\nTUNEL Assay: The TUNEL staining procedure was conducted on the DeadEnd Fluorometric TUNEL System (#G3250; Promega), according to the manufacturer’s instructions. In brief, paraffin-embedded sections were baked at 65°C for 60 min, followed by three washes in a xylene bath. The sections were then washed in a series of absolute ethanol, 95% ethanol, and 70% ethanol, and finally, in PBS. Then, each section was treated with proteinase K at 37°C for 30 min and washed three times with PBS. Thereafter, the sections were incubated with […] (containing Biotin-11-dUTP and TdT Enzyme) at 37 ℃ for 1 h in the dark, followed by three PBS washes. The samples were subsequently incubated with streptavidin–fluorescein at 37 ℃ for 30 min in the dark, followed by three washes with PBS. DAPI was used to stain the nucleus. Finally, the experimental outcomes were observed under a fluorescence microscope, and the percentages of TUNEL-positive cells were quantified from 10 randomly selected fields."}, "OVCAR3 cells [4]": {"test_system": "OVCAR3 cells", "assay": "Intraperitoneal tumor model, bioluminescence, OVCAR3", "type": "in vivo, human EOC cells in BALB/c-Nude mice", "conditions": "SPC25-overexpressing OVCAR3, 6 weeks CDDP", "description": "(§4) Subsequently, we selected 4 representative EOC cell lines (Figure S1F,G, Supporting Information) and validated the role of SPC25 in mediating platinum resistance in EOC through a series of in vitro and in vivo experiments. […] To further establish an EOC mouse model, we intraperitoneally injected BALB/c‐Nude mice with EOC cells with stable luciferase expression. CDDP treatment (three times per week, a week as a cycle) was initiated when the bioluminescence signal reached 2 × 10^7 p/s/cm^2/sr.\nas §3"}, "COV644 cells [5]": {"test_system": "COV644 cells", "assay": "Cell Counting Kit-8 viability, COV644", "type": "cell-based, human", "conditions": "SPC25-overexpressing COV644", "experimental": "as §1"}, "OVCAR3 cells [6]": {"test_system": "OVCAR3 cells", "assay": "Survival of intraperitoneal tumor-bearing nude mice, OVCAR3", "type": "in vivo, human EOC cells in BALB/c-Nude mice", "description": "as §4, §3"}, "OVCAR8 cells [7]": {"test_system": "OVCAR8 cells", "assay": "Annexin V/PI apoptosis, OVCAR8", "type": "cell-based, human", "conditions": "replicates #1-#3", "experimental": "as §2"}, "OVCAR3 cells [8]": {"test_system": "OVCAR3 cells", "assay": "Cell Counting Kit-8 viability, OVCAR3", "type": "cell-based, human", "conditions": "SPC25-overexpressing OVCAR3", "experimental": "as §1"}, "COV644 cells [9]": {"test_system": "COV644 cells", "assay": "Annexin V/PI apoptosis, COV644", "type": "cell-based, human", "conditions": "for PI+/AnnexinV+: replicates #1-#3", "experimental": "as §2"}, "SKOV3 cells [10]": {"test_system": "SKOV3 cells", "assay": "Annexin V/PI apoptosis, SKOV3", "type": "cell-based, human", "conditions": "replicates #1-#3", "experimental": "as §2"}, "OVCAR8 cells [11]": {"test_system": "OVCAR8 cells", "assay": "Cell Counting Kit-8 viability, OVCAR8", "type": "cell-based, human", "conditions": "SPC25-silenced OVCAR8", "experimental": "as §1"}, "SPC25": {"test_system": "SPC25", "assay": "Expression of SPC25 across different generation CDX tumor of Blab/c Nude mice in CDDP group (Ct)", "type": "in vivo", "conditions": "for Gapdh (Ct): Gapdh_rep1-3, single replicates; for Expression of SPC25 (Ct): SPC25_rep1-3, single replicates", "description": "Supplement ADVS-11-2406688-s001.zip/SourceData.xlsx, sheet \"Fig1E-1G,S1F\" | column: Expression of SPC25 in CDDP-resistant and Parental CDX tumor of Blab/c Nude mice (Ct)"}}, "note": "Values joined by “and” are separate entries in the source; they are usually repeats but may differ in a detail not shown here. Equal entries are not always repeated.", "data": [{"smiles": "[NH2][Pt]([NH2])([Cl])[Cl]", "note": "[CDDP, cisplatin]", "values": [{"measurement": "CDDP sensitivity", "setting": "SKOV3 cells [1]", "result": "enhanced CDDP sensitivity"}, {"measurement": "PI+/AnnexinV+", "setting": "OVCAR3 cells [2]; OVCAR3 SPC25, CDDP 10μM", "result": "9.75 and 8.73 and 6.45"}, {"measurement": "PI+/AnnexinV+", "setting": "OVCAR3 cells [2]; OVCAR3 Vector, CDDP 10μM", "result": "21.37 and 25.13 and 28.24"}, {"measurement": "CDDP-induced apoptosis", "setting": "OVCAR3 cells [2]; SPC25-overexpressing OVCAR3", "result": "considerably reduced"}, {"measurement": "activation of caspase-3 and PARP", "setting": "caspase-3 and PARP", "result": "lowered activation"}, {"measurement": "TUNEL+ cell (%)", "setting": "[3]; OVCAR8 sh-SPC25#1, CDDP-treated mice", "result": "27.13% and 29.66% and 28.67% and 22.53% and 32.03% and 26.06%"}, {"measurement": "TUNEL+ cell (%)", "setting": "[3]; OVCAR8 sh-Scramble, CDDP-treated mice", "result": "5.89% and 11.46% and 4.76% and 9.62% and 7.34% and 8.41%"}, {"measurement": "TUNEL assay", "setting": "[3]; animal #1", "result": 10.02, "unit": "%"}, {"measurement": "TUNEL assay", "setting": "[3]; animal #2", "result": 8.97, "unit": "%"}, {"measurement": "TUNEL assay", "setting": "[3]; animal #3", "result": 6.23, "unit": "%"}, {"measurement": "TUNEL assay", "setting": "[3]; animal #4", "result": 11.92, "unit": "%"}, {"measurement": "TUNEL assay", "setting": "[3]; animal #5", "result": 7.56, "unit": "%"}, {"measurement": "TUNEL assay", "setting": "[3]; animal #6", "result": 8.03, "unit": "%"}, {"measurement": "TUNEL assay", "setting": "[3]; animal #7", "result": 7.63, "unit": "%"}, {"measurement": "CDDP resistance of tumors", "setting": "OVCAR3 cells [4]", "result": "notable increase in CDDP resistance"}, {"measurement": "cell growth in presence of CDDP", "setting": "COV644 cells [5]", "result": "significantly promoted growth"}, {"measurement": "Survival, days after CDDP treatment", "setting": "OVCAR3 cells [6]; OVCAR3 SPC25-overexpressing, status 1, individual mice", "result": "50 days and 52 days and 51 days and 55 days and 62 days"}, {"measurement": "Survival, days after CDDP treatment", "setting": "OVCAR3 cells [6]; OVCAR3 Vector, status 0, individual mice", "result": "70 days and 64 days and 82 days and 85 days"}, {"measurement": "Survival, days after CDDP treatment", "setting": "OVCAR3 cells [6]; OVCAR3 Vector, status 1, individual mice", "result": "58 days and 62 days"}, {"measurement": "survival of tumor-bearing mice", "setting": "OVCAR3 cells [6]; SPC25-overexpressing OVCAR3, CDDP", "result": "decreased survival"}, {"measurement": "PI+/AnnexinV+", "setting": "OVCAR8 cells [7]; OVCAR8 Scramble, CDDP 10μM", "result": "7.42 and 8.61 and 9.34"}, {"measurement": "PI+/AnnexinV+", "setting": "OVCAR8 cells [7]; OVCAR8 sh-SPC25#1, CDDP 10μM", "result": "24.86 and 27.38 and 21.74"}, {"measurement": "PI+/AnnexinV+", "setting": "OVCAR8 cells [7]; OVCAR8 sh-SPC25#2, CDDP 10μM", "result": "24.57 and 21.02 and 29.26"}, {"measurement": "cell growth in presence of CDDP", "setting": "OVCAR3 cells [8]", "result": "significantly promoted growth"}, {"measurement": "PI+/AnnexinV+", "setting": "COV644 cells [9]; COV644 SPC25, CDDP 10μM", "result": "9.53 and 5.89 and 7.71"}, {"measurement": "PI+/AnnexinV+", "setting": "COV644 cells [9]; COV644 Vector, CDDP 10μM", "result": "23.38 and 26.97 and 27.94"}, {"measurement": "CDDP-induced apoptosis", "setting": "COV644 cells [9]; SPC25-overexpressing COV644", "result": "considerably reduced"}, {"measurement": "PI+/AnnexinV+", "setting": "SKOV3 cells [10]; SKOV3 Scramble, CDDP 10μM", "result": "8.18 and 6.89 and 9.75"}, {"measurement": "PI+/AnnexinV+", "setting": "SKOV3 cells [10]; SKOV3 sh-SPC25#1, CDDP 10μM", "result": "30.36 and 26.95 and 22.58"}, {"measurement": "PI+/AnnexinV+", "setting": "SKOV3 cells [10]; SKOV3 sh-SPC25#2, CDDP 10μM", "result": "29.63 and 24.64 and 23.77"}, {"measurement": "CDDP sensitivity", "setting": "OVCAR8 cells [11]", "result": "enhanced CDDP sensitivity"}, {"measurement": "Gapdh (Ct)", "setting": "SPC25; 1st generation", "result": "17.013 Ct and 17.354 Ct and 17.197 Ct"}, {"measurement": "Expression of SPC25 (Ct)", "setting": "SPC25; 1st generation", "result": "27.496 Ct and 27.737 Ct and 27.628 Ct"}, {"measurement": "Gapdh (Ct)", "setting": "SPC25; 2nd generation", "result": "16.968 Ct and 16.875 Ct and 17.154 Ct"}, {"measurement": "Expression of SPC25 (Ct)", "setting": "SPC25; 2nd generation", "result": "26.835 Ct and 27.032 Ct and 26.963 Ct"}, {"measurement": "Gapdh (Ct)", "setting": "SPC25; 3rd generation", "result": "16.826 Ct and 17.002 Ct and 16.952 Ct"}, {"measurement": "Expression of SPC25 (Ct)", "setting": "SPC25; 3rd generation", "result": "26.448 Ct and 26.397 Ct and 26.314 Ct"}, {"measurement": "Gapdh (Ct)", "setting": "SPC25; 4th generation", "result": "16.654 Ct and 16.763 Ct and 16.924 Ct"}, {"measurement": "Expression of SPC25 (Ct)", "setting": "SPC25; 4th generation", "result": "25.574 Ct and 25.623 Ct and 25.706 Ct"}]}]}
